Measurements: patent US12128068B2, “Compositions and methods for dental mineralization” (The University of Melbourne, priority 2013, dated 2024)

Assay: Remineralization of enamel subsurface lesions (transverse microradiography and densitometric image analysis)
Set-up: species or system Human
Conditions: 1% v/v sodium hypochlorite for 1 min at start of CPP-ACP remineralization, versus CPP-ACP alone
Method: Human tooth enamel demineralized subsurface lesions were prepared using the method of Reynolds, (1997). J Dent Res 76:1587-1595. The enamel surface was removed by polishing to remove all adsorbed protein. This removed around 50-100 μm of enamel to expose an uncoated, polished enamel surface for the study. […] A 1% w/v CPP-ACP pH 5.0 solution was prepared using Recaldent® [Kraft Foods], a commercial source of CPP-ACP that is prepared as per Example 1 at a pH of 5.0. All blocks were remineralized with the 1% CPP-ACP pH 5 solution for 7 days at 37° C. However, half were exposed to a 1% v/v sodium hypochlorite solution for 1 min at the start of the CPP-ACP remineralization period. In other words, the sodium hypochlorite and CPP-ACP were simultaneously exposed to the subsurface lesion. After remineralization the enamel blocks were embedded, sectioned and subjected to transverse microradiography and densitometric image analysis as previously described by Reynolds (1997) to determine percent mineral content gain (% Remineralization) shown in Table 3.

## OCl [hypochlorite, sodium hypochlorite]
  increase of the level of remineralization by the CPP-ACP solution: 31%
